How the values were obtained:
Zucker obese fa/fa rats = assay: Oral Glucose Tolerance Test; format: in vivo, rat; conditions: 10 mg/kg; given orally 120 minutes before oral glucose 2 g/kg; Zucker obese fa/fa rats on high fat diet
Method: (2) Oral Glucose Tolerance Test (OGIT) Oral glucose tolerance tests were done on conscious Zucker obese fa/fa rats (age 12-13 weeks or older) fed a high fat diet (45% kcal fat) for at least two weeks prior to experimentation. The animals were fasted for 2 hours before use for experiments. A test compound or a vehicle was given orally 120 minutes before oral administration of a glucose solution at a dose of 2 g/kg body weight. Blood glucose levels were measured using a Accucheck glucometer from tail bled samples taken at different time points before and after administration of glucose (time course of […]). A time curve of the blood glucose levels was generated and the area-under-the-curve (AUC) for 120 minutes was calculated (the time of glucose administration being time zero). Percent reduction in glucose excursion was determined using the AUC in the vehicle-control group as zero percent reduction.

[1] = biological target: T1, recombinant human pancreatic GLK (Homo sapiens, UniProt P35557); assay: biochemical
T1 sequence (P35557 1-465): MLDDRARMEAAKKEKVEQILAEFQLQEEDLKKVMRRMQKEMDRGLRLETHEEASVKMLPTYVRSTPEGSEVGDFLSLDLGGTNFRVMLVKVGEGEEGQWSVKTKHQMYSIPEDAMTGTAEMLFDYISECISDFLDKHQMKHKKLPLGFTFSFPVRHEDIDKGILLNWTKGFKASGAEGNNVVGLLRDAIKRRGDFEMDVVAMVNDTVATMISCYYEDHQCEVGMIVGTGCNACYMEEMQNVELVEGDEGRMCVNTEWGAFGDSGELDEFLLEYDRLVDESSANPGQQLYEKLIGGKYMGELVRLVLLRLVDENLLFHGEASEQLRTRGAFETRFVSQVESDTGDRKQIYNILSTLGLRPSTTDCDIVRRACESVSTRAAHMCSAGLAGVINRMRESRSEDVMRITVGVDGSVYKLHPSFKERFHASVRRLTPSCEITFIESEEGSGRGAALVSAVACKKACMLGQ

Compound	effect in the Oral Glucose Tolerance Test (percent reduction in glucose excursion, AUC vs vehicle control) (Zucker obese fa/fa rats) [%]	EC50 [1] [nM]
Cn1ccc(NC(=O)c2cc(Oc3ccc(C(=O)N4CCC4)cc3)cc(O[C@H]3CCOC3)c2)n1 [Example 2, 3-{[4-(Azetidin-1-ylcarbonyl)phenyl]oxy}-N-(1-methyl-1H-pyrazol-3-yl)-5-[(3S)-tetrahydrofuran-3-yloxy]benzamide]	42	–
C#C[C@H](C)Oc1cc(Oc2ccc(C(=O)N3CCC3)cc2)cc(C(=O)Nc2ccn(C)n2)c1 [Example 7, 3-{[4-(Azetidin-1-ylcarbonyl)phenyl]oxy}-5-{[(15)-1-methylprop-2-yn-1-yl]oxy}-N-(1-methyl-1H-pyrazol-3-yl)benzamide]	–	60
